Experimental data: ChEMBL document CHEMBL5465560, “Selectivity Literature for EUbOPEN Chemogenomic Library” (2024)
One block for each molecule: values may come before it.

Legend:
[1] = target: T1, Myotonin-protein kinase (Homo sapiens) (UniProt Q09013); assay: Selectivity interaction (LanthaScreen Eu Kinase Binding Assay) EUB0001632a DMPK; conditions: at 10 µM
T1 sequence (whole entry): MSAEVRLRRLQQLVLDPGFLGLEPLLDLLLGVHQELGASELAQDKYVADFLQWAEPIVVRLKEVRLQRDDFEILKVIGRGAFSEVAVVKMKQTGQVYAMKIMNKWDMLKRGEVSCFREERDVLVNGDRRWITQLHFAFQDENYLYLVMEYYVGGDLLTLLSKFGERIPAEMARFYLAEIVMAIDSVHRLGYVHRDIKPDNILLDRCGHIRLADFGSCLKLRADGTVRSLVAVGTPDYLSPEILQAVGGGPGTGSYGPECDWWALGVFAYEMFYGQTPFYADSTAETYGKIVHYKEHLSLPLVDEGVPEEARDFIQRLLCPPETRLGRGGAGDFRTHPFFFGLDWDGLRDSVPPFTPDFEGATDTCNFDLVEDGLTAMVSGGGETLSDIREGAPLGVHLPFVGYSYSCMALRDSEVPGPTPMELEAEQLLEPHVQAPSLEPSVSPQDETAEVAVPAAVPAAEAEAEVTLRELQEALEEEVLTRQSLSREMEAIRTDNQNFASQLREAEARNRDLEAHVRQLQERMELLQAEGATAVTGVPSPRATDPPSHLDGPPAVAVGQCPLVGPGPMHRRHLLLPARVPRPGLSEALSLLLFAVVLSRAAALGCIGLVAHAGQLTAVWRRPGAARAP

[2] = Selectivity interaction (Inhibition of ex vivo anti-IgM/IL-4 -induced proximal pAKT formation in rats) EUB0000877a PIK3CD
[3] = target: Cyclin-dependent kinase 8 (Homo sapiens, UniProt P49336); assay: Selectivity interaction (ActivX KiNativ screen (kinase selectivity in THP-1 cell lysates)) EUB0000639a CDK8; assay type: subcellular; conditions: lysate
Chain of Cyclin-dependent kinase 8 (P49336 whole entry): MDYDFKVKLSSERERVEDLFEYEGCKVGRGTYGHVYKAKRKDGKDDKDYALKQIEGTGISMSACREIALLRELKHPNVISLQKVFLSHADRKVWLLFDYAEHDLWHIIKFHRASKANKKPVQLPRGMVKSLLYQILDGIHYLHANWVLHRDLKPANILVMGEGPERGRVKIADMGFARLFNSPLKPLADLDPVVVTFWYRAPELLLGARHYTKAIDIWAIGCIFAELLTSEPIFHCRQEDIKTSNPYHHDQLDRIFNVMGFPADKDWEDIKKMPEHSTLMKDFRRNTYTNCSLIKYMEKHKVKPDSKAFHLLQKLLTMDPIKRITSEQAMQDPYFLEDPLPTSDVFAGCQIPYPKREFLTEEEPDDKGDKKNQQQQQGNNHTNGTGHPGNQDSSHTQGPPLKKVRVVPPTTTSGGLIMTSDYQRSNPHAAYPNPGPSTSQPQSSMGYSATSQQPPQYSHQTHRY

[4] = target: Tyrosine-protein kinase ABL1 (Homo sapiens, UniProt P00519); assay: Selectivity interaction (KinomeScan (DiscoverX)) EUB0001049a ABL1; conditions: at 1 µM
Chain of Tyrosine-protein kinase ABL1 (P00519 whole entry): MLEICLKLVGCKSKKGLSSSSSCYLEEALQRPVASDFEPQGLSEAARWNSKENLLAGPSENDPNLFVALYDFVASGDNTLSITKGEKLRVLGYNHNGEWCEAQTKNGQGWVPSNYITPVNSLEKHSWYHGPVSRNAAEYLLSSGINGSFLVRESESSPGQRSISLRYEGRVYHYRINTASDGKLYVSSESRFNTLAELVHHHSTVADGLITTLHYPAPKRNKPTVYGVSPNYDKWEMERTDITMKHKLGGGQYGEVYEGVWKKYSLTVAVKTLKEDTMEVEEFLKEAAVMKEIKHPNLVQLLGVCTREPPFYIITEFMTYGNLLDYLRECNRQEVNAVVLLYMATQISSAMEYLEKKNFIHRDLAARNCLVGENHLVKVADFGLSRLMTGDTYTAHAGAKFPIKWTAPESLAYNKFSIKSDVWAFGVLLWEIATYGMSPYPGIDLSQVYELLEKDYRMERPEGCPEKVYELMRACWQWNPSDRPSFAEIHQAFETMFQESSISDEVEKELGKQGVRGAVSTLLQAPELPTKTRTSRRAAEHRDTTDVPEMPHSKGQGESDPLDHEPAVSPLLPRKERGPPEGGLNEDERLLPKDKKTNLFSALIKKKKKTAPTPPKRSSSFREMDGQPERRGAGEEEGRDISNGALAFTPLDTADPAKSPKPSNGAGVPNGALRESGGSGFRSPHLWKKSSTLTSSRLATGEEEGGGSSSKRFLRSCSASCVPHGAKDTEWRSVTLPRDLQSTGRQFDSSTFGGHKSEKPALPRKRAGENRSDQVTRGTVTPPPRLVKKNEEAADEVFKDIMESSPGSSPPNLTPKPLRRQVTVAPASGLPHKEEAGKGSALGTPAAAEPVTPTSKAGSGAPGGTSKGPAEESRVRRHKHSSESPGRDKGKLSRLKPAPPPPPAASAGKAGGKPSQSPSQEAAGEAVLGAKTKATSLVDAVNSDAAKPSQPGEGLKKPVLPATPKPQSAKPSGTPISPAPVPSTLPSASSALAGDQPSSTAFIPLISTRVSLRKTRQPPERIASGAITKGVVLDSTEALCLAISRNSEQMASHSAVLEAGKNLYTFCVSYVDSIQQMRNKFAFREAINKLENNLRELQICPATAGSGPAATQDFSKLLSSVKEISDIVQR

[5] = target: T2, Calcium/calmodulin-dependent protein kinase type IV (Homo sapiens) (UniProt Q16566); assay: Selectivity interaction (Kinase panel (DSF assay)) EUB0001558a CAMK4
T2 sequence (whole entry): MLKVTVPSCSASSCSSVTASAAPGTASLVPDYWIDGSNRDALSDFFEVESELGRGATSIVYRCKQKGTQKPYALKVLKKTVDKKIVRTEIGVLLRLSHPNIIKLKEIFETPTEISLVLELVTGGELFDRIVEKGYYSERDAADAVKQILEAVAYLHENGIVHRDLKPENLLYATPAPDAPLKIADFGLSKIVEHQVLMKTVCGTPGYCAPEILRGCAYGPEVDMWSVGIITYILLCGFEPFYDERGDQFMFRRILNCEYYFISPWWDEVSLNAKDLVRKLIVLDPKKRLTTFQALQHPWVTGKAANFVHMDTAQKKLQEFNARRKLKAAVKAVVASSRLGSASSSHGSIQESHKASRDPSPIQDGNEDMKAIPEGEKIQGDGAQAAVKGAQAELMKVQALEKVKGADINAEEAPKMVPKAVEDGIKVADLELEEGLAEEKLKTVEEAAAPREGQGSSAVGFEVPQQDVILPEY

[6] = target: T3, Rhodopsin kinase GRK7 (Homo sapiens) (UniProt Q8WTQ7); assay: Selectivity interaction (KinomeScan (DiscoverX)) EUB0000655a GRK7; conditions: at 10 µM
T3 sequence (whole entry): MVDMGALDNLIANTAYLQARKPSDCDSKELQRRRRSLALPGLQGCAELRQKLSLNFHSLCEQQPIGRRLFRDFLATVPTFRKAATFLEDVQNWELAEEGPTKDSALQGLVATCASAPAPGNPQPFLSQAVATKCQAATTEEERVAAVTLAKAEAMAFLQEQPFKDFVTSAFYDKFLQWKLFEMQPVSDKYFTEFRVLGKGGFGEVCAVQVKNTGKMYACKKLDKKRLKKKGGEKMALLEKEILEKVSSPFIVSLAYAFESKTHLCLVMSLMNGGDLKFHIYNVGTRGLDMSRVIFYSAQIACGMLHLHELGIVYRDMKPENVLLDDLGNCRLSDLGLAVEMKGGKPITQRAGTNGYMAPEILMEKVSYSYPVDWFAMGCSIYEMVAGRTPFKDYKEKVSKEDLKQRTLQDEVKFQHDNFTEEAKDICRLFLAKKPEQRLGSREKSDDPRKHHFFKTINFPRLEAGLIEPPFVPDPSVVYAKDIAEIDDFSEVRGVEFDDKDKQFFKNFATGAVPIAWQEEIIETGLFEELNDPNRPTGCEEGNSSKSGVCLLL

[7] = target: Dual specificity mitogen-activated protein kinase kinase 1 (Homo sapiens, UniProt Q02750); assay: Selectivity interaction (KinomeScan (DiscoverX)) EUB0000618a MAP2K1; conditions: at 10 µM
Chain of Dual specificity mitogen-activated protein kinase kinase 1 (Q02750 whole entry, canonical isoform): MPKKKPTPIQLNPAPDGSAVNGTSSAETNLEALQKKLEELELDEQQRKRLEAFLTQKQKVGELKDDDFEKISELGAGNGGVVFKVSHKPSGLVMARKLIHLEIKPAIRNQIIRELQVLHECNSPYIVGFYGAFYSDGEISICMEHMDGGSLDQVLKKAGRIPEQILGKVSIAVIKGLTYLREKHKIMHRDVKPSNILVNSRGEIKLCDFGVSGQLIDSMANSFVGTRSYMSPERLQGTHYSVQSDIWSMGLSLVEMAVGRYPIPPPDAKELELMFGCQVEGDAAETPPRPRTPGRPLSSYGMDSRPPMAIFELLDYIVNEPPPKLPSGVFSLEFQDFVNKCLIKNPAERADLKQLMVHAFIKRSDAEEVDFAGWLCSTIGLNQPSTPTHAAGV

[8] = test system: Phosphatidylinositol 4,5-bisphosphate 3-kinase catalytic subunit alpha isoform (Homo sapiens), P42336 [C420R]; assay: (§1) Selectivity interaction (KinomeScan (DiscoverX)) EUB0001619a PIK3CA; conditions: at 1 µM
[9] = target: Phosphatidylinositol 4,5-bisphosphate 3-kinase catalytic subunit alpha isoform (Homo sapiens) (UniProt P42336); assay: as §1; conditions: at 1 µM
[10] = test system: Phosphatidylinositol 4,5-bisphosphate 3-kinase catalytic subunit alpha isoform (Homo sapiens), P42336 [E545A]; assay: as §1; conditions: at 1 µM
Chain of Phosphatidylinositol 4,5-bisphosphate 3-kinase catalytic subunit alpha isoform (Homo sapiens), P42336 [E545A] (P42336 whole entry E545A, canonical isoform): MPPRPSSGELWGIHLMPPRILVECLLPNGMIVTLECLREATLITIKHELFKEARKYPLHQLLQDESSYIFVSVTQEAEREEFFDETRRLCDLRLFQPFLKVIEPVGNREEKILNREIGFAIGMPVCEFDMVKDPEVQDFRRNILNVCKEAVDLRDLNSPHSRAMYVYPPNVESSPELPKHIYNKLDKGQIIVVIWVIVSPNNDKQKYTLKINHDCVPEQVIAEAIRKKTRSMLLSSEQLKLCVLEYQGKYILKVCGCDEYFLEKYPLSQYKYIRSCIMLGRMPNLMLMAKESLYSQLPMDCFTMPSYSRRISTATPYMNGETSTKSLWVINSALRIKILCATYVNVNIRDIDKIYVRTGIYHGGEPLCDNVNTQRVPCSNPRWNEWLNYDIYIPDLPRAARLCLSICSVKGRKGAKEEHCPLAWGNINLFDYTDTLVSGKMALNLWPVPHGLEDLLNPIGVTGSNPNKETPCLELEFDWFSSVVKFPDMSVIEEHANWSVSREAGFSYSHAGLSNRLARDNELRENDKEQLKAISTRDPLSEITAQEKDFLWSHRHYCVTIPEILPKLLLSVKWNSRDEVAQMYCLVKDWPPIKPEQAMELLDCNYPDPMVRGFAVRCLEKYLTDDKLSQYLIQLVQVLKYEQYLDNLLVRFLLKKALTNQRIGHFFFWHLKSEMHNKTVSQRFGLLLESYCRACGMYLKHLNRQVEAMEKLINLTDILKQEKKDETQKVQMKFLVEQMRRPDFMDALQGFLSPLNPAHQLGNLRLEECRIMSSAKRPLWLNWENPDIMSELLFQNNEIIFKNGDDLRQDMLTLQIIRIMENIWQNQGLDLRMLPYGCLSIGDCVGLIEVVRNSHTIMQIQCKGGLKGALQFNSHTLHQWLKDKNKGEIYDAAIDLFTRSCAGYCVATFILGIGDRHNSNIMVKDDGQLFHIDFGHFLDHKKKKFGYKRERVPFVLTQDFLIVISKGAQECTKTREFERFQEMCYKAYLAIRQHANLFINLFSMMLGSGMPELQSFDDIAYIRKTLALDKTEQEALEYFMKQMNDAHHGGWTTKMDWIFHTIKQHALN

[11] = test system: Phosphatidylinositol 4,5-bisphosphate 3-kinase catalytic subunit alpha isoform (Homo sapiens), P42336 [H1047L]; assay: as §1; conditions: at 1 µM
[12] = test system: Phosphatidylinositol 4,5-bisphosphate 3-kinase catalytic subunit alpha isoform (Homo sapiens), P42336 [M1043I]; assay: as §1; conditions: at 1 µM
[13] = test system: Phosphatidylinositol 4,5-bisphosphate 3-kinase catalytic subunit alpha isoform (Homo sapiens), P42336 [H1047Y]; assay: as §1; conditions: at 1 µM
[14] = test system: Phosphatidylinositol 4,5-bisphosphate 3-kinase catalytic subunit alpha isoform (Homo sapiens), P42336 [Q546K]; assay: as §1; conditions: at 1 µM
[15] = test system: Phosphatidylinositol 4,5-bisphosphate 3-kinase catalytic subunit alpha isoform (Homo sapiens), P42336 [E545K]; assay: as §1; conditions: at 1 µM
[16] = test system: Phosphatidylinositol 4,5-bisphosphate 3-kinase catalytic subunit alpha isoform (Homo sapiens), P42336 [E542K]; assay: as §1; conditions: at 1 µM
[17] = test system: Phosphatidylinositol 4,5-bisphosphate 3-kinase catalytic subunit alpha isoform (Homo sapiens), P42336 [I800L]; assay: as §1; conditions: at 1 µM
Chain of Phosphatidylinositol 4,5-bisphosphate 3-kinase catalytic subunit alpha isoform (Homo sapiens), P42336 [I800L] (P42336 whole entry I800L, canonical isoform): as the sequence (P42336 whole entry E545A, canonical isoform) above, with A545E, I800L counted along it

[18] = target: Ribosomal protein S6 kinase beta-1 (Homo sapiens, UniProt P23443); assay: Selectivity interaction (ActivX KiNativ screen (ex vivo kinase selectivity in human PBMCs)) EUB0001619a RPS6KB1; assay type: cell-based; conditions: PBMC, at 1 µM
Chain of Ribosomal protein S6 kinase beta-1 (P23443 whole entry, looked up): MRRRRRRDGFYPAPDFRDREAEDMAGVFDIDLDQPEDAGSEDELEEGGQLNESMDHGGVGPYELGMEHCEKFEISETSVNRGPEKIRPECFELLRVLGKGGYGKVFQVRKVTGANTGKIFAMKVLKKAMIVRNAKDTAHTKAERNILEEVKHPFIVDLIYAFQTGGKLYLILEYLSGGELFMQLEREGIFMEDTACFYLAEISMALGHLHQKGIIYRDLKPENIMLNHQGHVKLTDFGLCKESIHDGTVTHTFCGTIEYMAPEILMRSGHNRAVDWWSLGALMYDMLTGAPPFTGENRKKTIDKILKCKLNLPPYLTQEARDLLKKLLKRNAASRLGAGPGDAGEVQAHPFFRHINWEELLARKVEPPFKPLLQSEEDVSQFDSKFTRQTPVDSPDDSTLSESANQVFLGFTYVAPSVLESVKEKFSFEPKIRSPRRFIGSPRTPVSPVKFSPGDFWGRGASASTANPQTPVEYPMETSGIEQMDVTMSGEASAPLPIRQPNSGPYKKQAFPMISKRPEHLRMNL

[19] = target: T3, Rhodopsin kinase GRK7 (Homo sapiens); assay: Selectivity interaction (KinomeScan (DiscoverX)) EUB0001619a GRK7; conditions: at 1 µM

- % of inhibition [1]: -4.81%
Structure (SMILES): Cn1cc(-n2cnc3c(NCc4nc5cc(Cl)c(Cl)cc5[nH]4)nc(N4CCOCC4)nc32)cn1

- EC50 [2]: 83 nM
Structure (SMILES): CCC(=O)N1CC[C@H](Nc2ncnc3c2CN(c2cnc(OC)c(C(F)(F)F)c2)CC3)C1 [LENIOLISIB]

- % of inhibition ([3]; at 0.01 µM): 10.4%
- % of inhibition ([3]; at 0.04 µM): -11.1%
- % of inhibition ([3]; at 0.2 µM): 2.6%
- % of inhibition ([3]; at 1 µM): 7.8%
- % of inhibition ([3]; at 5 µM): 18.7%
Structure (SMILES): CC[C@@H]1[C@H](F)C(=O)N[C@@H]1COc1nccc2cc(C(N)=O)c(OC)cc12 [ZIMLOVISERTIB]

Structure (SMILES): COc1cc(Nc2nc(C)cc(-c3cnn4nc(OC)ccc34)n2)cc(C(F)(F)F)c1
- % of control [4]: 84%

Structure (SMILES): CC(C)(O)[C@H](F)CN1Cc2cc(NC(=O)c3cnn4cccnc34)c(N3CCOCC3)cc2C1=O
- dTM [5]: 1 K

Structure (SMILES): CN(C)CCOc1ccc(-c2nc(-c3ccncc3)c(-c3ccc4c(c3)CC/C4=N\O)[nH]2)cc1
- % of control [6]: 100%

Structure (SMILES): O[C@H]1CC[C@H](Nc2ncc3nc(Nc4c(F)cc(F)cc4F)n([C@H]4CCOC4)c3n2)CC1
- % of control [7]: 100%

Structure (SMILES): N#Cc1cccc(-c2c[nH]c3ncnc(N4CCOCC4)c23)c1
- % of control [8]: 95%
- % of control [9]: 100%
- % of control [10]: 100%
- % of control [11]: 90%
- % of control [12]: 100%
- % of control [13]: 76%
- % of control [14]: 97%
- % of control [15]: 96%
- % of control [16]: 90%
- % of control [17]: 88%
- % of inhibition [18]: -10%
- % of control [19]: 37%
